Converted amounts (≈) assume the structure as drawn. The source made the active and inactive calls. The calls are words filed in the database; no cut-off is given here. Peptide text beside a SMILES is read from it. * marks the point of attachment. Decanoyl = CCCCCCCCCC(=O)*
Assays:
Pseudomonas aeruginosa [1] = assay: Antibacterial activity against Pseudomonas aeruginosa PAO1 clinical isolate assessed as inhibition of biofilm formation at 4 ug/ml after 18 to 22 hrs by crystal violet staining-based polystyrene microtiter plate reader method in presence of 0.5 ug/ml colistin; type: functional, organism-based
Pseudomonas aeruginosa [2] = assay: Antibacterial activity against Pseudomonas aeruginosa KD491 clinical isolate assessed as delay in growth rate in exponential phase of bacterial growth curve at 4 to 8 ug/ml measured every 15 mins by microtiter plate reader method; type: functional, organism-based
Pseudomonas aeruginosa [3] = assay: Antibacterial activity against Pseudomonas aeruginosa KD557 clinical isolate after 16 to 20 hrs by microdilution assay; type: functional
Pseudomonas aeruginosa [4] = assay: Antibacterial activity against Pseudomonas aeruginosa VW0247 clinical isolate after 16 to 20 hrs by microdilution assay; type: functional
Pseudomonas aeruginosa [5] = assay: Antibacterial activity against Pseudomonas aeruginosa LESB58 clinical isolate assessed as growth inhibition at 32 ug/ml measured every 15 mins by microtiter plate reader method in presence of 1 ug/ml tobramycin; type: functional, organism-based
Pseudomonas aeruginosa [6] = assay: Antibacterial activity against Pseudomonas aeruginosa Clone C clinical isolate after 18 to 22 hrs by checkerboard method in presence of tobramycin; type: functional
Pseudomonas aeruginosa [7] = assay: Toxicity in Pseudomonas aeruginosa KD491 clinical isolate assessed as inhibition of planktonic cell growth at 2 to 4 ug/ml after 18 to 22 hrs by microtiter plate reader method; type: organism-based; conditions: in vivo
Pseudomonas aeruginosa [8] = assay: Antibacterial activity against Pseudomonas aeruginosa PAO1 clinical isolate assessed as inhibition of biofilm formation at 64 ug/ml after 18 to 22 hrs by crystal violet staining-based polystyrene microtiter plate reader method; type: functional
Pseudomonas aeruginosa [9] = assay: Antibacterial activity against Pseudomonas aeruginosa PAO1 clinical isolate assessed as inhibition of biofilm formation at 32 ug/ml after 18 to 22 hrs by crystal violet staining-based polystyrene microtiter plate reader method in absence of colistin; type: functional, organism-based
[10] = Hemolytic activity in erythrocytes (unknown origin) at 32 ug/ml; type: ADME, cell-based, Erythrocyte; conditions: read-out: Activity
Pseudomonas aeruginosa [11] = assay: Antibacterial activity against Pseudomonas aeruginosa MIDLANDS clinical isolate after 16 to 20 hrs by microdilution assay; type: functional
Pseudomonas aeruginosa [12] = assay: Antibacterial activity against Pseudomonas aeruginosa Clone C clinical isolate assessed as inhibition of biofilm formation at 32 ug/ml after 18 to 22 hrs by crystal violet staining-based polystyrene microtiter plate reader method in absence of colistin; type: functional, organism-based
[13] = Hemolytic activity in erythrocytes (unknown origin) at 250 ug/ml; type: ADME, cell-based, Erythrocyte; conditions: read-out: Activity
Pseudomonas aeruginosa [14] = assay: Antibacterial activity against Pseudomonas aeruginosa kl 3.2 clinical isolate after 16 to 20 hrs by microdilution assay; type: functional
Pseudomonas aeruginosa [15] = assay: Antibacterial activity against Pseudomonas aeruginosa VW1501 clinical isolate after 16 to 20 hrs by microdilution assay; type: functional
Pseudomonas aeruginosa [16] = assay: Antibacterial activity against Pseudomonas aeruginosa VW1485 clinical isolate after 16 to 20 hrs by microdilution assay; type: functional
Pseudomonas aeruginosa [17] = assay: Antibacterial activity against Pseudomonas aeruginosa Clone C clinical isolate assessed as delay in growth at 8 to 16 ug/ml measured every 15 mins by microtiter plate reader method; type: functional, organism-based
Pseudomonas aeruginosa [18] = assay: Antibacterial activity against Pseudomonas aeruginosa VW1538 clinical isolate after 16 to 20 hrs by microdilution assay; type: functional
Pseudomonas aeruginosa [19] = assay: Antibacterial activity against Pseudomonas aeruginosa LESB58 clinical isolate assessed as delay in growth rate in exponential phase of bacterial growth curve at 4 to 32 ug/ml measured every 15 mins by microtiter plate reader method; type: functional, organism-based
Pseudomonas aeruginosa [20] = assay: Antibacterial activity against Pseudomonas aeruginosa PAO1 clinical isolate assessed as inhibition of biofilm formation at 4 ug/ml after 18 to 22 hrs by crystal violet staining-based polystyrene microtiter plate reader method in presence of 0.5 ug/ml tobramycin; type: functional, organism-based
Pseudomonas aeruginosa [21] = assay: Antibacterial activity against Pseudomonas aeruginosa KD491 clinical isolate assessed as growth inhibition at 8 ug/ml measured every 15 mins by microtiter plate reader method in presence of 1 ug/ml tobramycin; type: functional, organism-based
Pseudomonas aeruginosa [22] = assay: Antibacterial activity against Pseudomonas aeruginosa LES400 clinical isolate after 16 to 20 hrs by microdilution assay; type: functional

MIC (Pseudomonas aeruginosa [3]): 256 µg/mL (≈ 193 µM)
MIC (Pseudomonas aeruginosa [4]): 64 µg/mL (≈ 48.2 µM)
MIC (Pseudomonas aeruginosa [11]): 64 µg/mL (≈ 48.2 µM)
MIC (Pseudomonas aeruginosa [14]): 128 µg/mL (≈ 96.4 µM)
MIC (Pseudomonas aeruginosa [15]): 128 µg/mL (≈ 96.4 µM)
MIC (Pseudomonas aeruginosa [16]): 256 µg/mL (≈ 193 µM)
MIC (Pseudomonas aeruginosa [18]): 64 µg/mL (≈ 48.2 µM)
MIC (Pseudomonas aeruginosa [22]): 64 µg/mL (≈ 48.2 µM)
SMILES: CCCCCCCCCC(=O)NCCCC[C@H](NC(=O)[C@H](Cc1c[nH]c2ccccc12)NC(=O)[C@H](CCCNC(=N)N)NC(=O)[C@H](Cc1c[nH]c2ccccc12)NC(=O)[C@H](CCCNC(=N)N)NC(=O)[C@H](Cc1c[nH]c2ccccc12)NC(=O)[C@@H](N)CCCNC(=N)N)C(=O)O (H-RWRWRWK(Decanoyl)-OH)
inhibition (Pseudomonas aeruginosa [1]): inactive
Activity (Pseudomonas aeruginosa [2]): Active
growth inhibition (GI) (Pseudomonas aeruginosa [5]): Active
fractional inhibitory concentration index (FICI) (Pseudomonas aeruginosa [6]): 0.5
Activity (Pseudomonas aeruginosa [7]): Non-toxic
inhibition at 64 µg/mL (Pseudomonas aeruginosa [8]): 81%
inhibition (Pseudomonas aeruginosa [9]): inactive
hemolysis at 32 ug/ml [10]: < 10%
inhibition (Pseudomonas aeruginosa [12]): inactive
hemolysis at 250 ug/ml [13]: 50%
Activity (Pseudomonas aeruginosa [17]): Active
Activity (Pseudomonas aeruginosa [19]): Active
inhibition (Pseudomonas aeruginosa [20]): inactive
growth inhibition (GI) (Pseudomonas aeruginosa [21]): Active

— ChEMBL document CHEMBL3779859, “Synergistic activity of a short lipidated antimicrobial peptide (lipoAMP) and colistin or tobramycin against Pseudomonas aeruginosa from cystic fibrosis patients” (Medchemcomm, 2016)
